Drawing on ChEMBL document CHEMBL1201862, “PubChem BioAssay data set” (2004), this text covers IC50, AC50 and EC50 for five molecules.

Test [1] concerns the target T1, Dual specificity protein phosphatase 3 (Homo sapiens, UniProt P51452). The test is described as follows: VHR1 phosphatase inhibitors, primary screen, biochemical, absorbance, uHTS (AID 1654).
The target of test [2] is T1, Dual specificity protein phosphatase 3. The test is described as follows: VHR1 phosphatase inhibitors, biochemical (AID 1878).
The target in test [3] is T2, Dual specificity protein phosphatase 6 (Rattus norvegicus, UniProt Q64346).
T2 sequence (Q64346 whole entry): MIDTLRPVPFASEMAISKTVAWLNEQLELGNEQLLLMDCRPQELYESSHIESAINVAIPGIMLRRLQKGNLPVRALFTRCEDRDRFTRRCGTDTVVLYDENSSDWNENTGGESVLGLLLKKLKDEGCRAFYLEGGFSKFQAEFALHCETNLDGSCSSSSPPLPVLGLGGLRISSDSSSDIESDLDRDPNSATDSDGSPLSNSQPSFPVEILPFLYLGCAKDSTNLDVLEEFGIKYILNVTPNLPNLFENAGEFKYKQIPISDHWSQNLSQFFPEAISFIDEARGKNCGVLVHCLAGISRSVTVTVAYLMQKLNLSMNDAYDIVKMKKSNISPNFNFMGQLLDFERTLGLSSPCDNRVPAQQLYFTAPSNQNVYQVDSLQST
Description: MKP-3 phosphatase inhibitors, primary screen, biochemical, rat enzyme, in vitro (AID 425).

The target of test [4] is Glucose-6-phosphate 1-dehydrogenase (Homo sapiens, UniProt P11413). Description: human G6PD enzyme inhibitors, dose response, selectivity assay for P. falciparum G6PD inhibitor project, biochemical, fluorescence (AID 504792). The format is functional.
Test [5] deals with T1, Dual specificity protein phosphatase 3. Description: SAR VHR1 absorbance Assay for In Vitro dose response studies. [Related pubchem assays (depositor defined):AID1654, AID1661, AID1878, AID1992, AID2004].
Test [6] has the same target. The test is described as follows: SAR VHR1 Fluorescent Assay for In Vitro dose response studies. [Related pubchem assays (depositor defined):AID1654, AID1661, AID1878, AID1992, AID2004, AID2070, AID2085]. The format is functional.
Test [7] addresses T3, Tyrosine-protein phosphatase non-receptor type 7 (Homo sapiens, UniProt P35236).
T3 sequence (P35236 whole entry): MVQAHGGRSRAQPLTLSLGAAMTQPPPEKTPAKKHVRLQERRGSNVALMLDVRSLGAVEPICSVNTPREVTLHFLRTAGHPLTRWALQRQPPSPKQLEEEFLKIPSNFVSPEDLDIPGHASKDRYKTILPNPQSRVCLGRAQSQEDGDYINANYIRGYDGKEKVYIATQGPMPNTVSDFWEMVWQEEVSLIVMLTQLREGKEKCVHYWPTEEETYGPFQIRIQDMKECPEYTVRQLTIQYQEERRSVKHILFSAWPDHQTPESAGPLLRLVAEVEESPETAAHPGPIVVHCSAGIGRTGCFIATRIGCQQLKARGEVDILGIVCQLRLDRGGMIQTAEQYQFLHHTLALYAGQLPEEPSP
The test is described as follows: redox-dependent HePTP inhibition, mechanism study, biochemical, fluorescence (AID 2068). It is filed as functional.

Test [8] has as its target T2, Dual specificity protein phosphatase 6. Description: SAR analysis of inhibitors of MKP-3 - Set 2. [Related pubchem assays (depositor defined):AID1055, AID1661, AID425, AID553, AID566]. It is filed as functional.
The target of test [9] is T3, Tyrosine-protein phosphatase non-receptor type 7. The test is described as follows: SAR analysis of chemical inhibitors of HePTP using a Fluorescent assay - Set 2. [Related pubchem assays (depositor defined):AID1059, AID1077, AID1661, AID2085, AID521]. The format is functional.
Test [10] concerns the target T1, Dual specificity protein phosphatase 3. The test is described as follows: SAR VHR1 Fluorescent Assay for In Vitro dose response studies Set 2. [Related pubchem assays (depositor defined):AID1654, AID1661, AID1878]. It is filed as functional.
Test [11] deals with T2, Dual specificity protein phosphatase 6. It is filed as functional.
For test [12], the target named is T4, Tyrosine-protein phosphatase non-receptor type 11 (Homo sapiens, UniProt Q06124).
T4 sequence (Q06124 whole entry): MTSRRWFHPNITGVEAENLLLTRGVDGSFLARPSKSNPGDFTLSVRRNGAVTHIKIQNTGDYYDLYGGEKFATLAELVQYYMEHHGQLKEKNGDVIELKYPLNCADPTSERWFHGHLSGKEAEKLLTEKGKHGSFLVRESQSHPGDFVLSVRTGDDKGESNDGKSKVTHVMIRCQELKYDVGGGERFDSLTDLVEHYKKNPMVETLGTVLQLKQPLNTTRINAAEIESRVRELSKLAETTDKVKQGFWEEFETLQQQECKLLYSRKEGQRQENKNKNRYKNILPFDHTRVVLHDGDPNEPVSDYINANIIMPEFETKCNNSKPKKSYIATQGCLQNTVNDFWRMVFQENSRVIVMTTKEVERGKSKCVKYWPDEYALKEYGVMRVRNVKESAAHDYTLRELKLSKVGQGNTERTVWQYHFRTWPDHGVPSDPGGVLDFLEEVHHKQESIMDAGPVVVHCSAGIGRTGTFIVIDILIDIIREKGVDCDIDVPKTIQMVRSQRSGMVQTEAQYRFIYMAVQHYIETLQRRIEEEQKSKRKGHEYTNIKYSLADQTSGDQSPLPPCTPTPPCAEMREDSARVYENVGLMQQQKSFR
The test is described as follows: SHP2 phosphatase inhibition, dose response, selectivity assay for STEP inhibitor project, biochemical (AID 602367). To be noted: read-out: IC50_Mean. It is filed as functional.

In test [13] the target is T5, Tyrosine-protein phosphatase non-receptor type 5 (Homo sapiens, UniProt P54829).
T5 sequence (P54829 whole entry): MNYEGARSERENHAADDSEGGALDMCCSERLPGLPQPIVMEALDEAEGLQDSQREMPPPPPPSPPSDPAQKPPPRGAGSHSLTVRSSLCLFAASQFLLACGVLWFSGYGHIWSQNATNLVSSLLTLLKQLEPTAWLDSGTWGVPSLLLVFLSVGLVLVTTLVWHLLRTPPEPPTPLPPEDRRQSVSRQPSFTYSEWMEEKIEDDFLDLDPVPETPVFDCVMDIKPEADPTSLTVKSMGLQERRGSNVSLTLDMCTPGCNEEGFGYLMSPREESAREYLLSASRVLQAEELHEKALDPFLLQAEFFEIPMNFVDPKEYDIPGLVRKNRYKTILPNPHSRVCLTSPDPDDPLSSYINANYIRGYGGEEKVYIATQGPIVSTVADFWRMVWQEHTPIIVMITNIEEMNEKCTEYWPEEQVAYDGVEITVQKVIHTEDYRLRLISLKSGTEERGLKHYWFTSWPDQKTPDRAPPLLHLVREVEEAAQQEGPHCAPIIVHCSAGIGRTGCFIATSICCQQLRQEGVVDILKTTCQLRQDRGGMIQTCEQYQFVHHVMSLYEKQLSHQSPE
Description: STEP phosphatase inhibitors, confirmation, biochemical, fluorescence intensity, uHTS hits (AID 602372). It is filed as functional. The following applies: read-out: IC50_Mean.

Test [14] has as its target T1, Dual specificity protein phosphatase 3. Description: VHR phosphatase inhibition, dose response, selectivity assay for STEP inhibitor project, biochemical (AID 602374). It is filed as functional. The following applies: read-out: IC50_Mean.
The target of test [15] is T6, Tyrosine-protein phosphatase non-receptor type 22 (Homo sapiens, UniProt Q9Y2R2).
T6 sequence (Q9Y2R2 whole entry): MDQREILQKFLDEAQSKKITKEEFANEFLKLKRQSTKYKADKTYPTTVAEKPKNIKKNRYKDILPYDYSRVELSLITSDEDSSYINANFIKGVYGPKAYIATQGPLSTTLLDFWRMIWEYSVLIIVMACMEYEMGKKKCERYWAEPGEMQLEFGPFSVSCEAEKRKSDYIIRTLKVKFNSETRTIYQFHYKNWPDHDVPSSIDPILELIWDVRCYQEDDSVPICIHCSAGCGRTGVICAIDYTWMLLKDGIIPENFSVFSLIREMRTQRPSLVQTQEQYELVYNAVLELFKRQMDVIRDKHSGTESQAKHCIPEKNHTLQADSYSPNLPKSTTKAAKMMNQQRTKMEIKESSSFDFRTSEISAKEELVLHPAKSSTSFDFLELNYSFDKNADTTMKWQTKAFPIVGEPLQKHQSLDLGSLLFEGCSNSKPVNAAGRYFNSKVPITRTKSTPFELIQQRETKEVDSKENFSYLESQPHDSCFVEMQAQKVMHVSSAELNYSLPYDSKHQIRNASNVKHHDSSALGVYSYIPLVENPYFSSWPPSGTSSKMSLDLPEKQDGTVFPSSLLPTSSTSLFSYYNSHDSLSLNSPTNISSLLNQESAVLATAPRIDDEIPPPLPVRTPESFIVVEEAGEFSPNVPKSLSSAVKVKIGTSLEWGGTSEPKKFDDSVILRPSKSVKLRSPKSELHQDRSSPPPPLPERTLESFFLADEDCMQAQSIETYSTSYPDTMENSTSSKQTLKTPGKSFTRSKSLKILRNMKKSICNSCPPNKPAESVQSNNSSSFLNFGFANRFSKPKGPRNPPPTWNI
The test is described as follows: PTPN22 phosphatase inhibition, dose response, selectivity assay for STEP inhibitor project, biochemical (AID 624241). It is filed as functional.

The nature of test [16]: Luminescence Cell-Based Dose Retest to Confirm Inhibitors of Cancer Stem Cells. [Related pubchem assays (depositor defined):AID2717, AID2721]. It is filed as functional. The following applies: Homo sapiens.
The nature of test [17]: cytotoxicity in HMLE control line with eGFP shRNA, dose response, counter-screen for HMLE_sh_ECad selective toxicity project, cell-based, HMLE_sh_eGFP, luminescence (AID 463074).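 Also: HMLE human mammary epithelial cells expressing control shRNA against eGFP.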 It is filed as functional, Homo sapiens. In general terms: A counterscreen serves to expose hits that act by an unwanted route or on another target.
Test [18] is described as follows: Fluorescence polarization-based biochemical high throughput dose response assay for activators of the Protein Kinase A-R1A (PKA-R1A) complex. [Related pubchem assays (depositor defined):AID504704, AID504707, AID504799, AID504800].
Test [19] is described as follows: Fluorescence polarization-based biochemical high throughput dose response assay for activators of the Protein Kinase A-R2B (PKA-R2B) complex. [Related pubchem assays (depositor defined):AID504700, AID504704, AID504796, AID504797]. Background: Polarisation of emitted light reports the rotation of a fluorescent probe.
Test [20] concerns the target T1, Dual specificity protein phosphatase 3. Description: SAR VHR1 Fluorescent Assay for In Vitro dose response studies Set 3. [Related pubchem assays (depositor defined):AID1654, AID1661, AID1878]. The format is functional.
Test [21] relates to Escherichia coli. The test is described as follows: microbe, parasite or virus in culture.
Test [22] has as its system Escherichia coli. Description: microbe, parasite or virus in culture. The source holds these as a separate data set.

The structures appear in SMILES notation. Activity calls are given as the source filed them.

T1 sequence (P51452 whole entry): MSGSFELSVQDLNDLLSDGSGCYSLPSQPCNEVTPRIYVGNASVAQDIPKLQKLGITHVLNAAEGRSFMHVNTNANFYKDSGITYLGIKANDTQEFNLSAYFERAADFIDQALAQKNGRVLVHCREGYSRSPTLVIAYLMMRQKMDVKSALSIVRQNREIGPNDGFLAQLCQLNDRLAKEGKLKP
Sequence of Glucose-6-phosphate 1-dehydrogenase (P11413 whole entry): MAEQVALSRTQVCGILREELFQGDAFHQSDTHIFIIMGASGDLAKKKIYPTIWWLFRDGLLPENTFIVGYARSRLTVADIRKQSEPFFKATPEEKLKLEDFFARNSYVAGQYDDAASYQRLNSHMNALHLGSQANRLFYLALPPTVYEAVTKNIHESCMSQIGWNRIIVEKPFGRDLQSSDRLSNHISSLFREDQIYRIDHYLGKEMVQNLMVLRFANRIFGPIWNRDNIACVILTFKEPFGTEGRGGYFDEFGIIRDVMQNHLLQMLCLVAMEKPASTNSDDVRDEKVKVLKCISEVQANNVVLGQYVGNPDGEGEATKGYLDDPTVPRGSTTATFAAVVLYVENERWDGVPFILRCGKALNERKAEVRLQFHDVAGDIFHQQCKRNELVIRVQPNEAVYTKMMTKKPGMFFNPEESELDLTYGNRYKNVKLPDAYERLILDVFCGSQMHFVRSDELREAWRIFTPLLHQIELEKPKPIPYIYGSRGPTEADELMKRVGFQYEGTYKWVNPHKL

Consider `COc1ccc(NC(=S)N(CCC(C)C)C2CCN(C(C)C)CC2)cc1Cl`, for which the IC50 in [1] was 2.09 µM (active); in [2], 4.01 µM (active); in [3] it was > 158 µM (not active); in test [4], > 80 µM (inactive); in test [5], 1.26 µM (active); in [6] it was > 99 µM (inactive). Further, the IC50 was < 0.195 µM (active) in test [7]; > 100 µM (inactive) in [8]; 0.662 µM (active) in [9]; 0.216 µM (active) in test [10]; > 99 µM (inactive) in [11]; 0.676 µM (active) in test [12]. The IC50 was 3.86 µM (active) in [13], 0.271 µM (active) in test [14] and 21 µM (inactive) in test [15].
`COc1ccccc1N=C(S)N=Nc1c(O)[nH]c2ccc(Br)cc12`: the AC50 was 0.739 µM (active) in [16] and 31.4 µM (active) in test [17].
For the molecule `Nc1ncnc2c1nc(Br)n2[C@@H]1O[C@@H]2COP(=O)(O)O[C@H]2[C@H]1O`, the half-maximal effective concentration (EC50) in test [18] is 0.0344 µM (active); in test [19] it was 0.0511 µM (active).
Consider `O=C(Nc1ccc(-c2nc3ccccc3s2)cc1)c1cc(-n2cnnc2)ccc1Cl`, for which the IC50 in test [20] was 12.1 µM (active).
For `Cc1ccccc1C(=O)N1CCC(C(=O)NC(C)c2ccc(-n3ccnc3)cc2)CC1` (configuration not stated), the concentration at half-maximal activity (AC50) with Escherichia coli [21] was 24.5 µM (active); in the test on Escherichia coli [22], 69.2 µM (active).

Broadly, the AC50 is the midpoint of the concentration-response curve, whichever way the signal moves. Usually EC50 stands for the concentration at which the effect is half-maximal.
